Earlier results on one compound are cited in patent publication US12247090B2, “Enzyme-mediated free radical initiating systems for the production of hydrogels and controlled radical polymerization processes” (Duke University, priority 2021, dated 2025).

This data set has as its system rat. To be noted: in vivo, po.

Consider `CC(=O)CC(C)=O` [ACAC, acetylacetone], for which the LD50 was 55 mg/kg.
